From US20240327412A1, “FACTOR XIIA INHIBITORS” (KALVISTA PHARMACEUTICALS LIMITED, priority 2021, published 2024)

Assays:
Human Factor XIIa = target: T1, Human Factor XIIa (Homo sapiens, UniProt P00748); test: Determination of FXIIa inhibition (fluorogenic substrate H-DPro-Phe-Arg-AFC, IC50 assay); type: biochemical; details: substrate at Km concentration, 25° C.; category scale; read-out: Human FXII IC50 (nm)
T1 construct: Proteolytic cleavage of FXII to heavy and light chains of FXIIa dramatically increases catalytic activity; purchased Enzyme Research Laboratories
T1 sequence (P00748 373-615 limits assumed): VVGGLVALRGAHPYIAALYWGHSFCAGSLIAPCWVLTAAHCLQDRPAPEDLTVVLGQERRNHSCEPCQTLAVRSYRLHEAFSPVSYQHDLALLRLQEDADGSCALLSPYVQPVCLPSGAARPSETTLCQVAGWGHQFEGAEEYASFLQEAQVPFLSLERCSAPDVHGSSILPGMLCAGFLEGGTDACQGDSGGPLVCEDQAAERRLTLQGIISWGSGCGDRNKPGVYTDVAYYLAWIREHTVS
T1 sequence (P00748 20-372 partner limits assumed): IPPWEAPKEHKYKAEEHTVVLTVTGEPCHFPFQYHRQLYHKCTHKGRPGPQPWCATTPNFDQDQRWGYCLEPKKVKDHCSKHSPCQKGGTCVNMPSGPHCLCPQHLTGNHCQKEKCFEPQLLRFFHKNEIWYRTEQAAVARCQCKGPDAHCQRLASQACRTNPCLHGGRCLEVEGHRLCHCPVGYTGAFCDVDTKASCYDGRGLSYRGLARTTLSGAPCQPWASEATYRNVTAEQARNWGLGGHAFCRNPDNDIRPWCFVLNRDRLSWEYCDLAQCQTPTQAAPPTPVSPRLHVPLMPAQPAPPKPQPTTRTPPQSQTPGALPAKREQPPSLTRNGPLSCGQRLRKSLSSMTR
Procedure, shortened: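 Human FXIIa incubated at 25° C. with fluorogenic H-DPro-Phe-Arg-AFC at its Km concentration plus varying compound levels. Linear fluorescence increase over 5 min taken as % activity; IC50 is concentration halving uninhibited activity.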

Plasma Kallikrein = target: T2, Plasma Kallikrein (Homo sapiens, UniProt P03952); test: Related protease inhibition: Plasma Kallikrein (fluorogenic substrate at Km); type: biochemical; details: class symbols per Table 18, read-out: IC50 (human PKal)
T2 construct: FXIIa converts plasma prekallikrein (PK) to plasma kallikrein (PKa)
Procedure: In vitro inhibition of related proteases was determined using an IC50 assay based on standard literature methods (see e.g. Shori et al., Biochem. Pharmacol., 1992, 43, 1209; Bouckaert et al., European Journal of Medicinal Chemistry 110 (2016) 181). Human serine protease enzyme Plasma Kallikrein, KLK1, FXa, Plasmin, Thrombin and Trypsin were assayed for enzymatic activity using an appropriate fluorogenic substrate at Km concentration, FXIa at fixed substrate concentration of 100 μM and various concentrations of the test compound. Protease activity was measured by monitoring the accumulation of liberated fluorescence from the substrate over 5 min at 25° C. The linear rate of fluorescence increase per minute was expressed as percentage (%) activity. IC50 values were calculated as the concentration of inhibitor giving 50% inhibition of the uninhibited enzyme activity (100%).

T2 sequence (P03952 391-638 limits assumed): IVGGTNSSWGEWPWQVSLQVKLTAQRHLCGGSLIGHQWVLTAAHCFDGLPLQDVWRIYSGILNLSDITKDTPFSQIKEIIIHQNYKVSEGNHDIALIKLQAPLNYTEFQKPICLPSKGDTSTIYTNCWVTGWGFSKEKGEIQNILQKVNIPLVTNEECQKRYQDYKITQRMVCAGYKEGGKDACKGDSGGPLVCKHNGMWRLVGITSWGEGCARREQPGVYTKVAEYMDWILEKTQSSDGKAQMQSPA
T2 sequence (P03952 20-390 partner limits assumed): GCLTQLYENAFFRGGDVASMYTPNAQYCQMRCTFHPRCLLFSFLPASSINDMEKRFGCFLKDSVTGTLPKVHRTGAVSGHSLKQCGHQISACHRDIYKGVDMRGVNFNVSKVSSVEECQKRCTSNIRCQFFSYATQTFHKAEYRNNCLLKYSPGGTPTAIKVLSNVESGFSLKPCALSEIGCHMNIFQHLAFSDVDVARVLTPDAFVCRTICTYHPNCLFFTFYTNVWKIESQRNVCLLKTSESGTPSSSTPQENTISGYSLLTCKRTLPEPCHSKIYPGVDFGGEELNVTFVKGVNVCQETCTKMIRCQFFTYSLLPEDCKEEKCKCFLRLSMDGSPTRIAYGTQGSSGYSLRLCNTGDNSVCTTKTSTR

Row | SMILES | IC50 (Human Factor XIIa) [nM] | IC50 (Plasma Kallikrein) [µM]
1 | Nc1nccc2c(NCC34CC(COc5ccc6nnc(C(F)F)n6n5)(CCO3)C4)cccc12 [Example 10910, N5-((5-(((3-(difluoromethyl)-[1,2,4]triazolo[4,3-b]pyridazin-6-yl)oxy)methyl)-2-oxabicyclo[3.1.1]heptan-1-yl)methyl)isoquinoline-1,5-diamine] | 100 to 300 | > 40
2 | Nc1nccc2c(NCC34CC(COC5CCn6ccnc6C5)(C3)C4)cccc12 (single isomer, unassigned) [Example 1002.2, (R*)-N5-((3-(((5,6,7,8-tetrahydroimidazo[1,2-a]pyridin-7-yl)oxy)methyl)bicyclo[1.1.1]pentan-1-yl)methyl)isoquinoline-1,5-diamine] | 300 to 1000 | > 40
3 | Clc1cc2c(NCC34CC(COc5ccc6nccn6c5)(CCO3)C4)ccnc2[nH]1 [Example 10909, 2-Chloro-N-[[5-(imidazo[1,2-a]pyridin-6-yloxymethyl)-2-oxabicyclo[3.1.1]heptan-1-yl]methyl]-1H-pyrrolo[2,3-b]pyridin-4-amine] | 1000 to 3000 | > 40
4 | Nc1nccc2c(N3CC4(CCC4OCc4ccn5ccnc5c4)C3)cccc12 (single isomer, unassigned) [Example 9003, (S*)-5-(5-(imidazo[1,2-a]pyridin-7-ylmethoxy)-2-azaspiro[3.3]heptan-2-yl)isoquinolin-1-amine] | 10000 to 40000 | > 40
5 | Nc1nccc2c(NCC34COC(COc5ccc6ncnn6c5)(C3)C4)cccc12 [Example 2210, N5-((1-(([1,2,4]triazolo[1,5-a]pyridin-6-yloxy)methyl)-2-oxabicyclo[2.1.1]hexan-4-yl)methyl)isoquinoline-1,5-diamine] | 1000 to 3000 | > 40
6 | CC(C)N1C[C@@H]2C[C@H]1CN2CC12CC(CNc3cccc4c(N)nccc34)(C1)C2 [Example 1005.1, N5-((3-(((1S,4S)-5-Isopropyl-2,5-diazabicyclo[2.2.1]heptan-2-yl)methyl)bicyclo[1.1.1]pentan-1-yl)methyl)isoquinoline-1,5-diamine] | 300 to 1000 | > 40
7 | Nc1nccc2c(NCC34CC(COC5CCc6nccn6C5)(CO3)C4)cccc12 (stereo not drawn) [Example 6610, N5-((4-(((5,6,7,8-tetrahydroimidazo[1,2-a]pyridin-6-yl)oxy)methyl)-2-oxabicyclo[2.1.1]hexan-1-yl)methyl)isoquinoline-1,5-diamine] | 300 to 1000 | > 40
8 | Cn1cccc(OCC23CCOC(CNc4cccc5c(N)nccc45)(C2)C3)c1=O [Example 10911, 3-((1-(((1-aminoisoquinolin-5-yl)amino)methyl)-2-oxabicyclo[3.1.1]heptan-5-yl)methoxy)-1-methylpyridin-2(1H)-one] | 3000 to 10000 | > 40
9 | Clc1cc2c(NCC34CC(COc5ccn6ccnc6c5)(CO3)C4)ccnc2[nH]1 [Example 6606, 2-chloro-N-((4-((imidazo[1,2-a]pyridin-7-yloxy)methyl)-2-oxabicyclo[2.1.1]hexan-1-yl)methyl)-1H-pyrrolo[2,3-b]pyridin-4-amine] | 1000 to 3000 | > 40
10 | Nc1nccc2c(NCC34CC(COc5cccn6ccnc56)(C3)C4)cccc12 [Example 1018, 5-N-[[3-(Imidazo[1,2-a]pyridin-8-yloxymethyl)-1-bicyclo[1.1.1]pentanyl]methyl]isoquinoline-1,5-diamine] | 300 to 1000 | > 40
11 | Nc1nccc2c(NCC34CN(C(=O)OCc5ccccc5)C(C(=O)N5CCn6c(nnc6C(F)(F)F)C5)(C3)C4)cccc12 [Example 13002, benzyl 4-(((1-aminoisoquinolin-5-yl)amino)methyl)-1-(3-(trifluoromethyl)-5,6,7,8-tetrahydro-[1,2,4]triazolo[4,3-a]pyrazine-7-carbonyl)-2-azabicyclo[2.1.1]hexane-2-carboxylate] | 10000 to 40000 | > 40
12 | Nc1nccc2c(N3CC4(CCC4OCc4ccn5ccnc5c4)C3)cccc12 (stereo not drawn) [Example 9001, 5-(5-(imidazo[1,2-a]pyridin-7-ylmethoxy)-2-azaspiro[3.3]heptan-2-yl)isoquinolin-1-amine] | 10000 to 40000 | > 40
